Test results taken from US20190000789A1, “COMPOSITION AND METHOD FOR TREATING INFECTIONS CAUSED BY VANCOMYCIN-RESISTANT INFECTIOUS AGENTS IN A SUBJECT” (priority 2015, published 2019).
Like-named read-outs stand apart in the source and are kept apart here.

How the values were obtained:
[1] = tested on: S. coelicolor M145 ΔvanX (LAG3); assay: MIC of vancomycin on MM agar plates with added D-Ala; format: cell-based, Streptomyces coelicolor; conditions: Streptomyces coelicolor
From the text: VanX effectively eradicates the D-Ala-D-Ala dipeptide, thereby counteracting the accumulation of wild-type precursors and supporting vancomycin resistance (Lessard and Walsh, 1999; Tan et al., 2002). Therefore, a vanX null mutant was created using a similar strategy as for ddl, replacing the coding region of vanX by the apramycin resistance cassette aacC4. The mutant was created in both the parental strain S. coelicolor M145 and in its ddl suppressor mutant LAG2, generating LAG3 (M145 ΔvanX) and LAG4 (M145 Δddl ΔvanX vanS::IS466A), respectively.
LAG4 produced 20% wt precursors prior to the addition of D-Ala.
Escherichia coli strains JM109 (Sambrook et al., 1989) and ET12567 (Kieser et al., 2000) were used for routine cloning procedures and for extracting non-methylated DNA, respectively. Cells of E. coli were grown in Luria-Berani broth (LB) at 37° C. Streptomyces coelicolor A3(2) M145 was the parent of all mutants described in this work. All media and routine Streptomyces techniques were carried out as described (Kieser et al., 2000). SFM (soy flour mannitol) agar plates were used for propagating S. coelicolor strains and to prepare spore suspensions. For liquid-grown cultures, S. coelicolor mycelia were grown in normal minimal media with phosphate (NMMP) supplemented with 1% (w/v) mannitol as the sole carbon source. The MIC of vancomycin against S. coelicolor M145 and its mutant derivatives were determined by growth on minimal media (MM) agar plates supplemented with 1% mannitol as the sole carbon source, and 0, 2, 4, 8, 16, 32, 64, 128, 256 or 512 μg/ml vancomycin, in combination with 0, 1, 5, 10 or 50 mM of D-Ala or L-Ala. The vanX deletion mutants have been tested with 1, 5, 10, 50 and 100 μM D-Ala and L-Ala.

[2] = tested on: vanA-positive Enterococcus faecium clinical isolate vanA10; assay: MIC of vancomycin by serial dilution in 96-well plates with or without D-Ala; format: cell-based; conditions: for MIC: Enterococcus faecium
Procedure: Having established the important role of D-Ala in enhancing the efficacy of vancomycin against vancomycin-resistant S. coelicolor cells, next, its effect on the resistance of clinical isolates of Enterococcus faecium, which were vanA-positive strains, was assessed. MIC values were calculated by testing a serial dilution of vancomycin in the presence or absence of D-Ala in triplicate (Table 3).
The MIC was determined by measurement of the OD600 or by visual assessment, following the Clinical Laboratory and Standards Institute (CLSI) guidelines. […] This value compares to intermediate instead of total resistance. The strains were serially diluted in a 96-well plate and growth was assayed at OD600. The steps down refer to CSLI guidelines for clinical MIC measurements.
Five vanA-positive Enterococcus faecium strains were collected in 2011 and 2014 from patients in the Erasmus University Medical Centre, Rotterdam, The Netherlands. Presence of the vanA gene was confirmed by real-time PCR with the LIGHTCYCLER® 480 instrument (Roche Diagnostics, Almere, The Netherlands) with the primers vanA F1 and vanA R1, and the vanA probe. The resistance profile of these isolates was determined as MIC values using the VITEK II (BioMerieux) system AST-P586. To determine the MIC of vancomycin against E. faecium, cells were grown overnight on Trypticase Soy Agar (TSA) blood agar plates (Becton Dickinson, Breda, The Netherlands) and suspended in 0.9% NaCl until OD600 0.5 (±0.05). Of this suspension, 10 μl was dispensed into wells of sterile flat-bottom 96-well polystyrene tissue culture plates (Greiner Bio-One, Alphen aan Den Rijn, The Netherlands) containing serial dilutions of vancomycin in 190 μl of a 1:1 mixture of Fetal Bovine Serum (FBS) (Gibco, Bleiswijk, The Netherlands) and Iscove's Modified Dulbecco's Medium (IMDM) (without phenolred, Gibco, Bleiswijk, The Netherlands), and in the presence or absence of 50 mM D-alanine (Alfa Aesar, Ward Hill, Mass., USA). Plates were incubated for 18-24 hours at 37° C. and MIC values determined visually following the CLSI guidelines, or by spectrophotometer at 600 nm.

`CN[C@H](CC(C)C)C(=O)N[C@H]1C(=O)N[C@@H](CC(N)=O)C(=O)N[C@H]2C(=O)N[C@H]3C(=O)N[C@H](C(=O)N[C@H](C(=O)O)c4cc(O)cc(O)c4-c4cc3ccc4O)[C@H](O)c3ccc(c(Cl)c3)Oc3cc2cc(c3O[C@@H]2O[C@H](CO)[C@@H](O)[C@H](O)[C@H]2O[C@H]2C[C@](C)(N)[C@H](O)[C@H](C)O2)Oc2ccc(cc2Cl)[C@H]1O` [vancomycin] showed an MIC ([1]; read-out: MIC of vancomycin, M145 ΔvanX, 0 μM D-Ala) of 32 µg/mL, an MIC ([1]; read-out: MIC of vancomycin, M145 ΔvanX, 10 μM D-Ala) of 16 µg/mL and an MIC ([1]; read-out: MIC of vancomycin, M145 ΔvanX, 50 μM D-Ala) of 1 µg/mL. It also gave an MIC ([1]; read-out: MIC of vancomycin, M145 ΔvanX, 50 μg/ml D-Ala) of 1 µg/mL, an MIC ([1]; read-out: MIC of vancomycin, M145 ΔvanX, 100 μM D-Ala) of 1 µg/mL and an MIC ([2]; vanA10, 50 mM D-Ala, read-out: MIC with 50 mM D-Ala) of 16 µg/mL. For the same compound, the MIC ([2]; vanA10, read-out: MIC without D-Ala) was 2050 µg/mL and the “reduction of MIC” value ([2]; vanA10, 50 mM D-Ala, approximation based on 2-fold dilution steps) was ~128.
